According to patent US7381433B1, “Compositions containing an extract of a primula denticulata and use thereof” (Johnson & Johnson Consumer Companies, Inc., priority 2007, dated 2008):

System: sebocytes
Experiment: In vitro sebocyte lipogenesis assay (Nile red lipid accumulation)
Format: cell-based, human

Compound: CCCCCC1=CC(=O)C=C(OC)C1=O [Primin, 2-methoxy-6-pentyl-1,4-benzoquinone]
- Induction of lipogenesis (Primin concentration 0.3 μg/mL): 17.9%
- Induction of lipogenesis (Primin concentration 1.0 μg/mL): 21.3%
- Induction of lipogenesis (Primin concentration 3.0 μg/mL): 41.5%
- Effect on lipogenesis in sebocytes (in words) (summary of Tables 1 and 2): has lipogenic activity
